# Data from a melting point compilation (Tetko et al.; mined from patent text by program, amines drawn as free bases though some values may be those of a salt).
row,Compound,melting point [°C]
1,CCN(CC)CCCNC(=O)Cn1ncc(-c2ccc([N+](=O)[O-])cc2)c1-c1ccccc1,100 to 101
2,CC(C)(O)P(=O)(O)CCCN,243 to 244
3,O=C(O)C1=C(C(=O)Nc2ccc(Br)cc2F)CCCC1,98 to 99
4,C#CCOc1ccc2c(C)cc(=O)oc2c1C(=O)C=Cc1cccnc1,203 to 205
5,Cc1cc(CBr)cc(CBr)c1,65 to 66
6,Cc1ccc(COC2C(Sc3ccccc3)OC(C)C(O)C2O)cc1 (centres undefined),146 to 147
7,CCC(CC)N1C(=O)NCc2c1cc(C)nc2Oc1c(C)cc(C)cc1C,197 to 199
8,Nc1cc(-c2ccccn2)c[nH]c1=O,259 to 262
9,O=[N+]([O-])C1=C2N(Cc3cnc(Cl)s3)CCN2C2CCC1O2 (centres undefined),152
10,CC(=O)N1CCN=C1Nc1cc(C)nn1-c1ccc(Cl)cc1C,195
11,CCOc1ccc(CCCc2ccncc2)cc1,79 to 81
12,CCC(O)c1ncn2c1CN(C)C(=O)c1ccccc1-2 (centres undefined),145 to 147
13,COc1cc(OC)nc(Oc2cccc(NC(=O)C(C)(C)C)c2C(=O)O)n1,192 to 195
14,N#Cc1nn(-c2c(Cl)cc(C(F)(F)F)cc2Cl)cc1C1(C(F)(F)F)CC1,141
15,COc1ccc(-c2cc(=O)n(Cc3cc(OC)c(OC)c(OC)c3)nc2-c2ccc(OC)cc2)cc1,138 to 139
16,Cc1oc(C2CC=CCC2)nc1CC(=O)O (centres undefined),86 to 87
17,COc1ccc(Cn2c(=O)[nH]c3ccc(C)cc3c2=O)cc1,263 to 265
18,CC(C)COc1c(-c2ccc(S(C)(=O)=O)cc2)cnn(-c2cccc(Cl)c2)c1=O,166 to 169
19,COC(=O)C=Cc1cc(OC)ccc1-c1ccccc1,175 to 177
20,CCCCOc1ccc(-c2ccc3c(c2)C=C(C(=O)Nc2ccc(CN(C)C4CCOCC4)cc2)CCS3(=O)=O)cc1,233 to 236
21,CCCCCCCC1(C(=O)OC)CCC(C2CCC(CCC)CC2)CC1 (centres undefined),49
22,Cn1c(Br)c(C#N)c(C(F)(F)F)c1Br,101 to 104
23,COc1cc(Nc2nc(-c3ccccc3)cs2)ccc1-c1cnco1,193 to 195

row,Compound,melting point [°C]
1,COc1ccc(C2(C#Cc3cccc(-c4nnc(C)o4)c3)CCCC(=O)C2)cc1OC1CCCC1 (centres undefined),117 to 119
2,CC(=O)C1CCC2C3CCC4CC(O)C(OCCC#N)CC4(C)C3C(=O)CC12C (centres undefined),194 to 196
3,C[C@H]1C(=O)CCN1c1ccc(C#N)c2ccccc12,113 to 114
4,COc1c(O)c(C=O)cc2c1OCC2,71 to 72
5,NC(=O)c1ccc(Cl)c2c1CC([N+](=O)[O-])CO2 (centres undefined),193 to 194
6,O=C(C=Cc1ccco1)CCCCCl,50 to 52
7,O=C(NCCSCc1ccccc1)c1cnccc1C(F)(F)F,86 to 88
8,Cn1c(C(F)(F)F)cc(=O)n(-c2ccc3snc(C(=O)NS(C)(=O)=O)c3c2)c1=O,241 to 243
9,Cc1nnc2n1-c1ccc(N)cc1C(c1ccccc1F)=NC2(C)C,294
10,CC(=O)NCC1CN(c2ccc(N3CCN(c4nnc(N)s4)C(F)C3)cc2)C(=O)O1 (centres undefined),228 to 230
11,CS(=O)(=O)c1ccc(/C(=C\C2CCCCC2)C(=O)O)cc1[N+](=O)[O-],244 to 247
12,CNc1nc2ccccc2c2c1ncn2C,216 to 218
13,O=C(COc1ccc(Cl)cc1)N1Cc2ccc(C(=O)C(Cl)(Cl)Cl)n2Cc2ccccc21,165 to 167
14,CCC(CC)n1c(=O)ccc2cnc(Nc3ccc(N4CCN(C)CC4)cc3)nc21,155 to 157
15,Nc1cc(F)ccc1[N+](=O)[O-],99
16,CC(=O)N1CCSC1c1nsc2ccc(-n3c(=O)cc(C(F)(F)F)n(C)c3=O)cc12 (centres undefined),135 to 140
17,Nc1c(Cl)cc(-c2nc(C3CCNCC3)no2)c2c1CCO2,219
18,CC(C)n1nc(-c2c(-c3ccccc3)nn3ccc(OCCC4CCCCC4)cc23)ccc1=O,146 to 147
19,CCOc1cc([N+](=O)[O-])c(C)c(C)c1[N+](=O)[O-],64 to 66
20,COc1ccc(S(=O)(=O)C(CCCc2ccccc2)CC(=O)O)cc1OC (centres undefined),161 to 162
21,COc1ccc(C(C)(C)C)cc1S(N)(=O)=O,156 to 158
22,FC(F)(F)c1cc(I)ccc1-c1ccc(I)cc1C(F)(F)F,119 to 120

# The next lines start with the values.
row,melting point [°C],Compound
1,203 to 205,Cc1cc2c([nH]1)CC(c1ccccc1)CC2=O (centres undefined)
2,160 to 162,COc1cccc([C@H]2O[C@H](CC(=O)Nc3cc4c(c(CCC(=O)O)c3)CCCC4)C(=O)N(CC(C)(C)CO)c3ccc(Cl)cc32)c1OC
3,202 to 204,NC(=O)c1c(Cl)c(-c2ccccc2)n2c1CN(S(=O)(=O)c1ccncc1)CC2
4,93.7 to 95.1,CCOC(=O)C1=Cc2cc(Cl)cc(-c3cccc(OC)c3)c2OC1C(F)(F)F (centres undefined)
5,184 to 185,Cc1cn(Cc2ccc(F)cc2)c(C)c1C(=O)CC(=O)C(=O)O
6,> 270,CSc1ncc(C(=O)O)c(Nc2ccc3[nH]ncc3c2)n1
7,80 to 83,COc1ccc(Cl)cc1C(=O)N(C)OC
8,313 to 316,O=C1Cc2cc(-c3cnc4[nH]c(=O)n(CC5CCCCC5)c4n3)ccc2N1
9,220 to 222,O=C(Nc1n[nH]c(=S)s1)N[C@@H](Cc1ccccc1)C(=O)N1CCN(c2ccccn2)CC1
10,185 to 187,CC(C)(CN)c1ccc2nc(-c3ccccc3)[nH]c2c1
11,94 to 100,O=C(CCCN1CCN(c2cc3ccccc3cn2)CC1)c1cccs1
12,266 to 268,Oc1ccc(-c2n[nH]c3c2Cc2ccccc2-3)cc1
13,268 to 270,CSc1nc(=O)n(Cc2ccccc2)c2ncn(C)c12
14,228,Cn1ncnc1COc1nn2c(-c3ccccc3)nnc2cc1C1CCC1
15,135 to 137,O=C(c1ccc(Cl)cc1)c1cc2ccccc2cc1O
16,213 to 214,O=C(O)CNC(=O)Nc1ccc([N+](=O)[O-])cc1
17,186,CCC#CCOc1ccc(/C=C/C(=O)Nc2ccccc2C(=O)O)cc1OC
18,95 to 96,CC(C)(C)OC(=O)Cc1ccc(O)cc1
19,152 to 154,CCNC(=O)Nc1cccc(-c2cccc(OC)c2)c1
20,217 to 223,CC(/C=C/c1c(C)sc(C)c1C)=C(F)\C=C\C(C)=C\C(=O)O

row,melting point [°C],Compound
1,171 to 172,C#CCNC(=C[N+](=O)[O-])NCCSCc1ncccc1Cl
2,131 to 132,O=C(Nc1c(Cl)cncc1Cl)c1cc(OC2CCCC2)c(OC(F)F)cn1
3,130,O=C(CN1C(=O)c2ccccc2C1=O)Nc1ccccc1C(=O)N1CCCc2ccccc21
4,158 to 165,Cc1nc(N)nc(N)c1C=CC(C)c1ccc(Cl)cc1 (centres undefined)
5,174 to 180,ClCCn1c(-c2ccccc2)nc2cc(CN3CCN(C(c4ccccc4)c4ccccc4)CC3)ccc21
6,219 to 222,Nc1cnc2ccc(Cl)cc2n1
7,225 to 227,CNC1NC(=O)N(C)C(=O)N1N (centres undefined)
8,108 to 110,CC(C)CN1C(=O)COc2cc(F)c([N+](=O)[O-])cc21
9,139 to 140,CC(C)CCS(=O)(=O)NC(=O)/C=C/c1cc(OC(C)C)nn1Cc1ccc(C(F)(F)F)cc1Cl
10,167 to 168,CC1(C)CC(=O)c2cccc(C(=O)O)c2C1
11,145 to 147,COc1cc(OC)c(C(=O)CC(O)C(=O)O)cc1OC (centres undefined)
12,201 to 203,Cc1ccccc1S(=O)(=O)NC(=O)c1csc(Cc2ccc3oc(-c4nc(C(C)(C)C)cs4)cc3c2)n1
13,88 to 92,CCOC(=O)C(O)=CC(=O)c1ccc(C)o1
14,261 to 263,O=C1Nc2ccccc2CCC1N1C(=O)c2ccccc2C1=O (centres undefined)
15,184,Cc1cc(I)ccc1Nc1c(-c2nnc(N)o2)ccc(F)c1F
16,138 to 140,O=C(Nc1ccccc1Oc1ccc(Cl)cc1)C1CCNCC1
17,123 to 124,O=C(CCCCCCC(=O)c1ccc(F)cc1)c1ccc(F)cc1
18,225 to 226,NC(=NO)c1ccc2c(c1)nc(-c1ccc(OCc3ccccc3)cc1)n2C1CCCC1
19,150 to 151,O=C(NCc1ccc(F)cc1)c1ccnc(N2CCN(CC3CC3)C2=O)c1
20,137 to 140,O=c1oc(=O)n(Cc2cccs2)c2ccccc12

row,melting point [°C],Compound
1,146 to 148,O=C(O)c1nccc(-c2ccccc2)c1C(=O)O
2,228 to 230,C#CCOc1ccc(C(=O)C=Cc2c[nH]c3ccccc23)c(O)c1
3,200,CC1(C)Oc2ccc(C(=O)CO)cc2[C@H](NC(=O)c2ccc(F)c(Cl)c2)[C@@H]1O
4,250 to 254,CNC(=O)C1CCNC(c2ccnc3ccccc23)C1 (centres undefined)
5,138 to 140,COc1cc2c(cc1SC)CCN(C(C)=O)CC2
6,54 to 59,CCOC1CC2(C)C(CCC3C4CCCC4(C)CC(N(C)C)C32)CC1O (centres undefined)
7,123 to 127,COc1ccc2c(c1)C(=O)N(c1ccc3c(c1)CCCN3C)C2
8,130 to 132,O=C(CN1CCC(n2c(=O)[nH]c3ccccc32)CC1)Nc1ccc(C2CCCCC2)cc1
9,241 to 243,O=C(NCCO)c1ccccc1S(=O)(=O)Cc1c(O[C@H](Cn2ccnc2)c2ccccc2)ccc2c1CCCC2=O
10,98 to 99,CCOC(=O)c1cc(-c2ccc(F)cc2)sc1N
11,119 to 121,CCOCc1cc2cc(Cl)ccc2oc1=Nc1ccc(Br)cc1
12,176 to 177,COc1ccc(-n2ncc(C(=O)N[C@H](C)[C@](O)(Cn3cncn3)c3ccc(F)cc3F)c2C)cc1
13,65 to 66,CNCc1nnc(-c2ccc3occ(-c4cccc(OC(F)(F)F)c4)c3c2)o1
14,68 to 69,OCc1ccc(Cc2ccc3c(c2)OCO3)o1
15,153 to 154,O=C(O)[C@@H]1CCCN(CC#CCN2c3ccccc3CCc3ccccc32)C1
16,220 to 225,CCOc1ccc(-c2ccc(S(=O)(=O)NC(C(=O)O)C3CCN(CC(C)C)CC3)s2)cc1 (centres undefined)
17,198,COc1ccc(C(=O)Nc2c(Cl)cncc2Cl)cc1SC1CCCC1
18,294 to 296,COc1nc2c(c(OC)n1)C(c1ccc(O)c(OC)c1)C1=C(COC1=O)N2 (centres undefined)
19,221 to 225,CS(=O)(=O)Nc1cccc(Nc2nc(NCc3cccc(O)c3)c3nc[nH]c3n2)c1
